From patent publication US20170327598A1, “SINGLE DOMAIN ANTIBODIES DIRECTED AGAINST INTRACELLULAR ANTIGENS” (SINGH MOLECULAR MEDICINE, LLC, priority 2014, published 2017)
Values joined by “and” are separate entries in the source; they are usually repeats but may differ in a detail not shown here. Identical values can stand only once.

Test system: VEGF-A production in ARPE-19 cells
Assay: VEGF-A ELISA in ARPE-19 retinal cells, Experiment 2;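 note: confluent ARPE-19 cells in 96-well plates, VEGF-A in culture supernatant quantified by ELISA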
Format: cell-based, human
Settings: for Result (pg VEGF-A per mL): single reads; for pg VEGF-A per mL: based on collecting 0.1 ml of supernatant; for Mean (pg VEGF-A per mL): mean of Adj. Result, Wells 1-3; for Mean (pg VEGF-A per μg protein): mean of Wells 1-3; for Mean (pg VEGF-A per μg protein) / % Control: Experiment 2; for % Control: normalized for protein; for Mean Result (pg VEGF-A per mL) / pg VEGF-A per μg protein / Adj. Result (pg VEGF-A per mL): per well; for Adj. Result (pg VEGF-A per mL): adjusted for dilution

## Anti-STAT3 VHH13: anti-STAT3 single domain antibody, SEQ ID NO:3; bacterially produced form referred to as SBT-100
0.1 μg/well, 24 Hr
  Result (pg VEGF-A per mL): 58.86 pg VEGF-A per mL and 52.60 pg VEGF-A per mL and 59.52 pg VEGF-A per mL and 52.51 pg VEGF-A per mL and 64.54 pg VEGF-A per mL and 56.89 pg VEGF-A per mL
0.1 μg/well, 48 Hr
  % Negative Control: 100%
  pg VEGF-A per mL: 94.7 pg VEGF-A per mL and 85.1 pg VEGF-A per mL and 110 pg VEGF-A per mL
  Mean (pg VEGF-A per mL): 966 pg VEGF-A per mL
  Mean (pg VEGF-A per μg protein): 14.067 pg VEGF-A per μg protein
  % Control: 107.4%
  Mean Result (pg VEGF-A per mL): 189.30 pg VEGF-A per mL and 170.27 pg VEGF-A per mL and 220.04 pg VEGF-A per mL
  pg VEGF-A per μg protein: 14.1 pg VEGF-A per μg protein and 13.1 pg VEGF-A per μg protein and 15.1 pg VEGF-A per μg protein
  Adj. Result (pg VEGF-A per mL): 946.50 pg VEGF-A per mL and 851.33 pg VEGF-A per mL and 1100.22 pg VEGF-A per mL
  Result (pg VEGF-A per mL): 195.75 pg VEGF-A per mL and 182.85 pg VEGF-A per mL and 173.80 pg VEGF-A per mL and 166.73 pg VEGF-A per mL and 220.87 pg VEGF-A per mL and 219.22 pg VEGF-A per mL
1 μg/well, 12 Hr
  % Negative Control: 110.5%
  pg VEGF-A per mL: 12.9 pg VEGF-A per mL and 13.7 pg VEGF-A per mL and 16.1 pg VEGF-A per mL
  Mean (pg VEGF-A per mL): 142.5 pg VEGF-A per mL
  Mean (pg VEGF-A per μg protein): 2.273 pg VEGF-A per μg protein
  % Control: 120.3%
  Mean Result (pg VEGF-A per mL): 25.82 pg VEGF-A per mL and 27.43 pg VEGF-A per mL and 32.23 pg VEGF-A per mL
  pg VEGF-A per μg protein: 2 pg VEGF-A per μg protein and 2.2 pg VEGF-A per μg protein and 2.7 pg VEGF-A per μg protein
  Adj. Result (pg VEGF-A per mL): 129.12 pg VEGF-A per mL and 137.14 pg VEGF-A per mL and 161.16 pg VEGF-A per mL
  Result (pg VEGF-A per mL): 26.74 pg VEGF-A per mL and 24.91 pg VEGF-A per mL and 26.62 pg VEGF-A per mL and 28.24 pg VEGF-A per mL and 33.18 pg VEGF-A per mL and 31.29 pg VEGF-A per mL
1 μg/well, 24 Hr
  % Negative Control: 106.8%
  pg VEGF-A per mL: 37.3 pg VEGF-A per mL and 31.2 pg VEGF-A per mL and 29.9 pg VEGF-A per mL
  Mean (pg VEGF-A per mL): 327.9 pg VEGF-A per mL
  Mean (pg VEGF-A per μg protein): 4.084 pg VEGF-A per μg protein
  Mean Result (pg VEGF-A per mL): 74.61 pg VEGF-A per mL and 62.42 pg VEGF-A per mL and 59.71 pg VEGF-A per mL
  Adj. Result (pg VEGF-A per mL): 373.06 pg VEGF-A per mL and 312.11 pg VEGF-A per mL and 298.74 pg VEGF-A per mL
  Result (pg VEGF-A per mL): 78.44 pg VEGF-A per mL and 70.78 pg VEGF-A per mL and 68.61 pg VEGF-A per mL and 56.23 pg VEGF-A per mL and 63.71 pg VEGF-A per mL and 55.71 pg VEGF-A per mL
1 μg/well, 48 Hr
  pg VEGF-A per mL: 87.6 pg VEGF-A per mL and 101.9 pg VEGF-A per mL and 111.9 pg VEGF-A per mL
  Mean (pg VEGF-A per mL): 1004.7 pg VEGF-A per mL
  Mean (pg VEGF-A per μg protein): 13.796 pg VEGF-A per μg protein
  % Control: 105.4%
  Mean Result (pg VEGF-A per mL): 175.22 pg VEGF-A per mL and 203.89 pg VEGF-A per mL and 223.71 pg VEGF-A per mL
  pg VEGF-A per μg protein: 12.4 pg VEGF-A per μg protein and 13.6 pg VEGF-A per μg protein and 15.3 pg VEGF-A per μg protein
  Adj. Result (pg VEGF-A per mL): 876.08 pg VEGF-A per mL and 1019.44 pg VEGF-A per mL and 1118.55 pg VEGF-A per mL
  Result (pg VEGF-A per mL): 168.84 pg VEGF-A per mL and 181.59 pg VEGF-A per mL and 195.75 pg VEGF-A per mL and 212.03 pg VEGF-A per mL and 225.75 pg VEGF-A per mL and 221.67 pg VEGF-A per mL
10 μg/well, 12 Hr
  % Negative Control: 107.8%
  pg VEGF-A per mL: 15.2 pg VEGF-A per mL and 12.2 pg VEGF-A per mL and 14.3 pg VEGF-A per mL
  Mean (pg VEGF-A per mL): 139.00 pg VEGF-A per mL
  Mean (pg VEGF-A per μg protein): 2.148 pg VEGF-A per μg protein
  % Control: 113.7%
  Mean Result (pg VEGF-A per mL): 30.43 pg VEGF-A per mL and 24.41 pg VEGF-A per mL and 28.58 pg VEGF-A per mL
  pg VEGF-A per μg protein: 2.5 pg VEGF-A per μg protein and 1.9 pg VEGF-A per μg protein and 2 pg VEGF-A per μg protein
  Adj. Result (pg VEGF-A per mL): 152.14 pg VEGF-A per mL and 122.07 pg VEGF-A per mL and 142.92 pg VEGF-A per mL
  Result (pg VEGF-A per mL): 29.66 pg VEGF-A per mL and 31.2 pg VEGF-A per mL and 24.52 pg VEGF-A per mL and 24.31 pg VEGF-A per mL and 27.98 pg VEGF-A per mL and 29.18 pg VEGF-A per mL
10 μg/well, 24 Hr
  % Negative Control: 1142%
  pg VEGF-A per mL: 28 pg VEGF-A per mL and 34.8 pg VEGF-A per mL and 42.4 pg VEGF-A per mL
  Mean (pg VEGF-A per mL): 350.7 pg VEGF-A per mL
  Mean (pg VEGF-A per μg protein): 5.290 pg VEGF-A per μg protein
  % Control: 119.8%
  Mean Result (pg VEGF-A per mL): 55.95 pg VEGF-A per mL and 69.61 pg VEGF-A per mL and 84.84 pg VEGF-A per mL
  pg VEGF-A per μg protein: 4.4 pg VEGF-A per μg protein and 5.4 pg VEGF-A per μg protein and 6.1 pg VEGF-A per μg protein
  Adj. Result (pg VEGF-A per mL): 279.74 pg VEGF-A per mL and 348.06 pg VEGF-A per mL and 424.20 pg VEGF-A per mL
  Result (pg VEGF-A per mL): 57.85 pg VEGF-A per mL and 54.04 pg VEGF-A per mL and 72.69 pg VEGF-A per mL and 66.53 pg VEGF-A per mL and 84.97 pg VEGF-A per mL and 84.71 pg VEGF-A per mL
10 μg/well, 48 Hr
  % Negative Control: 99.3%
  pg VEGF-A per mL: 83.7 pg VEGF-A per mL and 95.6 pg VEGF-A per mL and 98.3 pg VEGF-A per mL
  Mean (pg VEGF-A per mL): 925.1 pg VEGF-A per mL
  Mean (pg VEGF-A per μg protein): 13.696 pg VEGF-A per μg protein
  % Control: 104.6%
  Mean Result (pg VEGF-A per mL): 191.17 pg VEGF-A per mL and 196.56 pg VEGF-A per mL and 167.34 pg VEGF-A per mL
  pg VEGF-A per μg protein: 11.8 pg VEGF-A per μg protein and 14 pg VEGF-A per μg protein and 15.3 pg VEGF-A per μg protein
  Adj. Result (pg VEGF-A per mL): 955.85 pg VEGF-A per mL and 982.81 pg VEGF-A per mL and 836.69 pg VEGF-A per mL
  Result (pg VEGF-A per mL): 194.18 pg VEGF-A per mL and 188.16 pg VEGF-A per mL and 194.77 pg VEGF-A per mL and 198.36 pg VEGF-A per mL and 158.85 pg VEGF-A per mL and 175.83 pg VEGF-A per mL
100 μg/mL, 12 hour treatment
  VEGF-A as % of control: 20.1%
100 μg/mL, 24 hour treatment
  VEGF-A as % of control: 7.5%
100 μg/mL, 48 hours
  pg VEGF-A/m protein as % of the negative control: 11%
100 μg/well, 12 Hr
  % Negative Control: 18.5%
  pg VEGF-A per mL: 2.4 pg VEGF-A per mL and 2.3 pg VEGF-A per mL
  Mean (pg VEGF-A per mL): 23.8 pg VEGF-A per mL
  Mean (pg VEGF-A per μg protein): 0.4 pg VEGF-A per μg protein
  Mean Result (pg VEGF-A per mL): 4.86 pg VEGF-A per mL and 4.58 pg VEGF-A per mL
  pg VEGF-A per μg protein: 0.4 pg VEGF-A per μg protein
  Adj. Result (pg VEGF-A per mL): 24.27 pg VEGF-A per mL and 22.91 pg VEGF-A per mL
  Result (pg VEGF-A per mL): 5.09 pg VEGF-A per mL and 4.62 pg VEGF-A per mL and 5.3 pg VEGF-A per mL and 4.41 pg VEGF-A per mL and 4.83 pg VEGF-A per mL and 4.33 pg VEGF-A per mL
100 μg/well, 24 Hr
  % Negative Control: 6.3%
  Mean (pg VEGF-A per mL): 19.2 pg VEGF-A per mL
  Mean (pg VEGF-A per μg protein): 0.329 pg VEGF-A per μg protein
  % Control: 7.5%
  pg VEGF-A per μg protein: 0.5 pg VEGF-A per μg protein and 0.3 pg VEGF-A per μg protein
100 μg/well, 48 Hr
  % Negative Control: 3.7%
  pg VEGF-A per mL: 3.9 pg VEGF-A per mL
  Mean (pg VEGF-A per mL): 35.6 pg VEGF-A per mL
  Mean (pg VEGF-A per μg protein): 1.458 pg VEGF-A per μg protein
  % Control: 11.1%
  Mean Result (pg VEGF-A per mL): 5.85 pg VEGF-A per mL and 7.78 pg VEGF-A per mL and 7.76 pg VEGF-A per mL
  pg VEGF-A per μg protein: 1.4 pg VEGF-A per μg protein and 1.6 pg VEGF-A per μg protein
  Adj. Result (pg VEGF-A per mL): 29.23 pg VEGF-A per mL and 38.88 pg VEGF-A per mL and 38.78 pg VEGF-A per mL
  Result (pg VEGF-A per mL): 8.03 pg VEGF-A per mL and 5.86 pg VEGF-A per mL and 5.83 pg VEGF-A per mL and 7.83 pg VEGF-A per mL and 7.72 pg VEGF-A per mL and 7.49 pg VEGF-A per mL
